Active and inactive are the calls of the source. The rule behind the calls is not given here.

The target in the test is Influenza A virus M2 proton channel (A/TW/4845/1999 H1N1). The test is described as follows: NMR binding screen, influenza A virus M2 proton channel, Kd (AID 1549). Conditions: M2 protein.
Take `CC(=O)O[C@H]1CC[C@@]2(C)C(CC[C@]3(C)C2CC=C2C4CC(C)(C)CC[C@]4(C)CC[C@]23C)C1(C)C` (some centres undefined): the Kd (as a rule, the free concentration of one partner at which half of the binding sites on the other are occupied at equilibrium, for simple one-to-one binding) was > 4 mM (inactive). As to `Cc1cc(C)n(CCC(=O)O)n1`, the Kd was > 4 mM (inactive). For the compound `Cc1ccc(C(=O)Nc2nnc(-c3ccncc3)s2)o1`, the Kd was > 4 mM (inactive). On to `O=C(Nc1ccccc1C(F)(F)F)N1CCCCCC1`, for which the Kd was > 4 mM (inactive). Consider `O=C(O)c1cccc(CSc2ncccn2)c1`, for which the Kd was > 4 mM (inactive). Regarding `COC(=O)Nc1c(C)n(C)n(-c2ccccc2)c1=O`, the Kd is > 4 mM (inactive). Take `Nc1ncnc2c1ncn2CCN1CCOCC1`: the Kd is > 4 mM (inactive).

As for `NS(=O)(=O)c1ccc(N2CCCC2=O)cc1`, the Kd is > 4 mM (inactive). The same measure for `N=c1n(N)c2ccccc2n1CCO`: > 4 mM (inactive); for `COc1cc(O)c2c(=O)c(O)c(-c3ccc(O)c(O)c3)oc2c1`: > 4 mM (inactive).

With `COC(=O)c1cc(-c2c[nH]c3ccccc23)n[nH]1`, the Kd was > 4 mM (inactive).

For `O=C1CCC(C(=O)NCc2ccc(Cl)cc2)N1` (centres undefined), the Kd is > 4 mM (inactive).

In the case of `c1ccc(CCN2CCN(CCc3ccccn3)CC2)nc1`, the Kd is > 4 mM (inactive). In the case of `Cc1nnc2sc(-c3ccco3)nn12`, the Kd was > 4 mM (inactive). For the compound `OC1CSc2ncnn2C1` (centres undefined), the Kd was > 4 mM (inactive). On to `COCCn1cnc2cc(C)c(C)cc21`, for which the Kd is > 4 mM (inactive).

Turning to `CCOC(=O)c1csc(N)n1`, the Kd was > 4 mM (inactive). Under `C=CC(=O)N1CC2CC(C1)c1cccc(=O)n1C2` (centres undefined) stands > 4 mM (inactive); under `CCP(=O)(CC)c1cccc(C)c1`, > 4 mM (inactive). As for `COC(=O)c1ccc2ncccc2c1`, the Kd is > 4 mM (inactive). Under `Cc1noc(-c2ccccc2)c1C(=O)O` stands > 4 mM (inactive); under `Cc1cc(C)n2nc(NCc3ccccc3)nc2n1`, > 4 mM (inactive); under `CN1C2CCC1CC(OC(=O)C(CO)c1ccccc1)C2` (centres undefined), > 4 mM (inactive). As for `N#Cc1nc(N2CCCCC2)nc(N2CCOCC2)n1`, the Kd was > 4 mM (inactive). Under `NC1Cc2ccccc2C1` stands > 4 mM (inactive). For the compound `CC1=NCCc2c1[nH]c1cc(O)ccc21`, the Kd was > 4 mM (inactive). The same measure for `NC(=O)Cn1nc2c3c(cccc3c1=O)-c1ccccc1-2`: > 4 mM (inactive); for `O=C(O)CC1Sc2ccccc2NC1=O` (centres undefined): > 4 mM (inactive). On to `O=C(NC1CC1)c1ccccc1[N+](=O)[O-]`, for which the Kd was > 4 mM (inactive). On to `Cc1ccc(SCc2nc(-c3ccncc3)no2)cc1`, for which the Kd is > 4 mM (inactive).

Regarding `O=c1c(O)cccc2cc(O)c(O)c(O)c12`, the Kd was > 4 mM (inactive).

On to `CC12OC(=O)CC3C(C)(C)[C@H](O)C=C[C@]3(C)C1CC[C@]1(C)C2=CC(=O)O[C@H]1c1ccoc1` (some centres undefined), for which the Kd was > 4 mM (inactive). For the compound `Cn1nc(-c2ccccc2)cc1N`, the Kd is > 4 mM (inactive). Under `COc1ccccc1NC(N)=S` stands > 4 mM (inactive).

With `Cc1ccc(CNc2ccc(O)cc2)cc1`, the Kd was > 4 mM (inactive).

On to `CNc1ccccc1C(=O)O`, for which the Kd was > 4 mM (inactive). With `COC(=O)C1=C(C)N(c2cccc(C(C)=O)c2)C(=O)C1`, the Kd is > 4 mM (inactive).

With `O=c1cc(-c2ccc(O)cc2)[nH]c(=S)[nH]1`, the Kd was > 4 mM (inactive).

Regarding `CCC(=O)Nc1ccccc1NC(C)=O`, the Kd was > 4 mM (inactive). With `COc1ccc(CN2CCC(O)CC2)c(O)c1`, the Kd is > 4 mM (inactive). The same measure for `CN1CCCn2c1nc1c2c(=O)[nH]c(=O)n1C`: > 4 mM (inactive); for `Cc1ccc(-c2nc(-c3cccnc3)no2)cc1`: > 4 mM (inactive); for `NC1=NC(=O)/C(=C/c2ccc(O)c(Cl)c2)S1`: > 4 mM (inactive). As to `Cn1ncc2c(=O)n(CC(=O)c3ccccc3)cnc21`, the Kd was > 4 mM (inactive).

As to `O=C(NC1=NCCS1)c1ccc2snnc2c1`, the Kd was > 4 mM (inactive). As to `COC1=CC(C)[C@@H]2C[C@H]3OC(=O)C[C@H]4C(C)=C(OC)C(=O)C([C@@]34C)[C@@]2(C)C1=O` (some centres undefined), the Kd was > 4 mM (inactive). For the compound `Nc1nc2[nH]c(=O)c(=O)[nH]c2c(=O)[nH]1`, the Kd was > 4 mM (inactive). As for `O=c1/c(=C/c2ccccc2F)sc2ncnn12`, the Kd was > 4 mM (inactive).

For `NC(=O)NCCCC(N)C(=O)O` (centres undefined), the Kd is > 4 mM (inactive). Take `Cc1nc(-c2cc(C(=O)O)no2)cs1`: the Kd is > 4 mM (inactive).

In the case of `Cc1onc(-c2ccccc2)c1C(=O)Nc1ccncc1`, the Kd was > 4 mM (inactive). Consider `CC(=O)Nc1ccc(C)cc1NC(C)=O`, for which the Kd is > 4 mM (inactive). Regarding `CC1(C)Cc2cccc(C(=O)O)c2O1`, the Kd is > 4 mM (inactive). Regarding `OCC1CN(Cc2ccccc2)CCO1` (centres undefined), the Kd is > 4 mM (inactive). `O=C(O)CCc1ccc2c(c1)OCO2`: the Kd is > 4 mM (inactive). With `S=c1[nH]nc(-c2cccnc2)n1C1CCCCC1`, the Kd is > 4 mM (inactive). With `C=C1C2=CC(=O)O[C@@H](c3ccoc3)[C@]2(C)CCC1[C@@]1(C)C=CC(=O)C(C)(C)[C@@H]1CC(=O)OC` (some centres undefined), the Kd is > 4 mM (inactive). Under `CCC[C@H]1CC2=C(C[C@@H](CC)CC3=C1C(=O)OC3=O)C(=O)OC2=O` stands > 4 mM (inactive); under `Cc1cc(C(=O)c2c(C)nn(C)c2Cl)n(C)n1`, > 4 mM (inactive). `CC(=O)NCC1(c2ccccc2)CCOCC1`: the Kd is > 4 mM (inactive). `Cc1noc(C)c1C(=O)Nc1ccc2c(c1)CCC2`: the Kd is > 4 mM (inactive). The same measure for `Oc1ccccc1N1CCOCC1`: > 4 mM (inactive). With `COC(=O)c1nc(-c2ccccc2)oc1N(C)C`, the Kd was > 4 mM (inactive). In the case of `O=C1CNC(=O)N1Cc1ccc(F)cc1`, the Kd is > 4 mM (inactive). With `O=C(Nc1nnc(-c2ccco2)o1)c1ccc([N+](=O)[O-])o1`, the Kd is > 4 mM (inactive). For `CCOC(=O)c1[nH]c(C)cc1C`, the Kd was > 4 mM (inactive). Consider `COc1ccc(-c2cc(=O)c3c(O)cc(O)c(-c4cc(-c5cc(=O)c6c(O)cc(O)cc6o5)ccc4OC)c3o2)cc1`, for which the Kd was > 4 mM (inactive).

`O=C(Cc1cccs1)Nc1nncs1`: the Kd was > 4 mM (inactive).

For the compound `CCC1=Nc2ccccc2-c2nnc(SC)nc2O1`, the Kd is > 4 mM (inactive). `Nc1nc(-c2nc3ccccc3[nH]2)cs1`: the Kd was > 4 mM (inactive). Turning to `CCNS(=O)(=O)c1cc(Br)ccc1OC`, the Kd is > 4 mM (inactive). `O=C1Nc2ccccc2C12OCCO2`: the Kd was > 4 mM (inactive). The same measure for `CN1CCN(Cc2cccnc2)CC1`: > 4 mM (inactive).

`O=C(O)C1CC(=O)N(C2Cc3ccccc3C2)C1` (centres undefined): the Kd is > 4 mM (inactive).

As for `CN1CCC(N2CCCC(C(N)=O)C2)CC1` (centres undefined), the Kd was > 4 mM (inactive). Take `CCOC(=O)CC1Sc2ccccc2NC1=O` (centres undefined): the Kd is > 4 mM (inactive). For `O=C1CCC(=O)N1c1nc2ccccc2s1`, the Kd was > 4 mM (inactive).

Take `Nc1cc(F)ccc1-n1ccnc1`: the Kd is > 4 mM (inactive). On to `OCc1ccc(OC(F)(F)F)cc1`, for which the Kd was > 4 mM (inactive). For `O=C(Nc1nnc(-c2ccco2)o1)C1=COCCO1`, the Kd was > 4 mM (inactive).

For the compound `Cc1noc(-c2ccccc2)c1CO`, the Kd was > 4 mM (inactive).

In the case of `C=C1C([C@]2(C)C(CC(=O)OC)[C@@](C)(COC(C)=O)OC(=O)C[C@@H]2OC(C)=O)[C@@H](OC=O)[C@H](OC(=O)C(OC(C)=O)C(C)CC)[C@@]2(C)[C@H](c3ccoc3)CC(=O)C12O` (some centres undefined), the Kd is > 4 mM (inactive). With `CCOC(=O)c1sc(SC)c2c1CCCC2O` (centres undefined), the Kd was > 4 mM (inactive). `N=Cc1c(O)n(-c2cccc(Cl)c2)c(=O)[nH]c1=O`: the Kd was > 4 mM (inactive). Consider `Nc1ccc(C2SCCS2)cc1`, for which the Kd was > 4 mM (inactive). On to `Oc1cccc(N2CCOCC2)c1`, for which the Kd was > 4 mM (inactive). For the compound `CCOc1ccc2nc(NS(C)(=O)=O)sc2c1`, the Kd is > 4 mM (inactive). Turning to `COC(=O)C[C@@H]1C2(C)C(=O)[C@@H](CC3=C4CC(=O)O[C@@H](c5ccoc5)[C@]4(C)CCC32)[C@H](OC(C)=O)C1(C)C` (some centres undefined), the Kd is > 4 mM (inactive). For `NCc1cc2ccccc2s1`, the Kd is > 4 mM (inactive). The same measure for `O=C(O)CCCCCCCCCCCCC1C=CCC1` (centres undefined): > 4 mM (inactive).

Take `O=C(O)c1cc(O)c2c(c1)C(=O)c1cc(O)cc(O)c1C2=O`: the Kd was > 4 mM (inactive). Take `Cc1c(-c2ccc(F)cc2)[n+](=O)c2c(n1[O-])CCC2`: the Kd is > 4 mM (inactive). Under `CNC(=O)Nc1cccc(C(F)(F)F)c1` stands > 4 mM (inactive); under `CN(C)/C=N/S(=O)(=O)c1ccccc1`, > 4 mM (inactive); under `CCCNC(=O)c1cnc2n(c1=O)CCS2`, > 4 mM (inactive). Turning to `COc1cc(O)c(C(C)=O)c(OC)c1`, the Kd was > 4 mM (inactive). For the compound `COc1ccc2c3c([nH]c2c1)C(C)=NCC3`, the Kd was > 4 mM (inactive). Consider `OCc1ccc(N2CCOCC2)nc1`, for which the Kd was > 4 mM (inactive). As to `CCOC(=O)c1c(-c2ccncc2)csc1N`, the Kd is > 4 mM (inactive).

Regarding `COc1ccc2[nH]c(O)c(NC(C)=O)c2c1`, the Kd is > 4 mM (inactive). Turning to `CN1C(=O)CC[C@H]1c1cccnc1`, the Kd was > 4 mM (inactive). In the case of `CCc1c(C(=O)Nc2ccncc2)csc1C`, the Kd was > 4 mM (inactive).

For the compound `CC(=O)Oc1ccc(/C=C/c2cc(OC(C)=O)cc(OC(C)=O)c2)cc1`, the Kd was > 4 mM (inactive). Consider `O=C1CN(c2ccccc2)CC(=O)N1`, for which the Kd was > 4 mM (inactive).
